Assay results published in US11357779B2 (G1 Therapeutics, Inc., priority 2018, dated 2022).
Read-outs that look alike come from different tables or passages of the source.

Legend:
[1] = Slurry conversion of impure Form B to pure Form B (small scale and scale-up, XRPD); assay type: physicochemical
Experimental: Approximately 16 small scale slurry experiments were carried out by varying the slurry concentration, temperature, HCl acid molar concentration, and content in the aqueous acetone mixtures as well as the water content. Slurries of impure Form B were performed in a given solvent system at targeted calculated concentration at ambient or elevated temperatures for various time/durations. The solids were isolated by vacuum filtration and submitted for XRPD analysis. The specific experimental conditions are detailed in Table 109 where solvent system ratios are by volume.
The slurries in acidic aqueous acetone mixtures at an elevated temperature of 50° C. […] FIG. 19 compares XRPD patterns of Sample 3 and 5 to the starting material of the experiments, impure Form B and to pure Form B. For comparison purposes, the samples were also compared to a second impure sample of Form B, (Impure Form B Sample 2 in FIG. 19). This second impure Form B contained larger amounts of the unknown Form than the impure Form B previously described in Example 8.
Several slurry experiments were performed in water:acetone solvent systems starting with impure Form B and varying the water:acetone ratio, slurry concentration, and time. Based on the initial slurry results, experiments in 1:2 (v/v) water:acetone at ambient temperature were performed with aliquots taken after 16 hours (Sample 6) and 20.5 hours (Sample 7). The slurry in this solvent system was conducted at a concentration of 100-125 mg/mL and ambient temperature. The XRPD patterns of the resulting materials were consistent with pure Form B (FIG. 20).
In an effort to improve the yield, water:acetone 1:3 (v/v) was used at 150 mg/mL concentration (Samples 13 and 14) however, the conversion was not completed even after 4 days (FIG. 21). Therefore, one experiment was performed using water:acetone 1:2 (v/v) slurry for 18 hours and then adding acetone to reach ratio water:acetone 1:4 (v/v) followed by slurry for 4 hours (Sample 12). The XRPD pattern of the resulting material was consistent with Form B, however, one of the undesired peaks reappeared shifted from 3.95 °2θ to 4.2 °2θ (FIG. 21).
The Julabo FP50 temperature control unit contained Julabo Thermal C10 fluid and the reactor temperature was measured with a K-type PTFE temperature probe. The experiments were carried out with Lara Control software version 2.3.5.0. The software tracked circulator temperature, vessel temperature, and stir rate, recording readings every tenth of a second throughout the experiment.
The reactor vessel was charged with the solids of impure Form B (58.86 g) in 471 mL of a water:acetone 1:2 (v/v) solvent system achieving 125 mg/mL slurry concentration (Samples 20-23). The resulting slurry was stirred at 30° C. for up to 43 hours with stirring speed of 400 rpm. The slurry was cooled to 25° C. over 30 minutes, discharged from the reactor vessel, and immediately slowly filtered (drop by drop) to […]. A water:acetone 1:2 (v/v) wash solution was prepared in advance and used to wash the filter cake in one portion.
Pulls were taken usually at the 20th hour and if needed at later time points (Table 110).
The conversion of impure Form B to pure Form B was conducted in water:acetone 1:2 (v/v) slurry at 125 mg/mL concentration and 30° C. for 43 hours. Very slow filtration was observed and the wet cake was air-dried at ambient conditions for 3.5 hours followed by vacuum drying at ambient temperature and 15 in Hg for 0.5 hour and then at ˜27 in Hg for 3.5 hours yielding 49.26 g ([…]).

[2] = system: ME-016 tumor; test: Murine BRAFmut melanoma PDX model, tumor growth and survival; assay type: in vivo; details: ME-016 tumor-containing mice; Compound I 100 mg/kg, dabrafenib 25 mg/kg, trametinib 1 mg/kg
Experimental: Mice containing a ME-016 tumor were treated with vehicle, Compound I (100 mg/kg), dabrafenib (25 mg/kg), trametinib (1 mg/kg), Compound I+dabrafenib, Compound I+trametinib, dabrafenib+trametinib, and Compound I+dabrafenib+trametinib.

[3] = system: tumor; details: mice, single dosage of 100 mg/kg; cited from earlier work
[4] = clinical; details: human, in vivo
[5] = system: BT474 tumor; test: Murine HER2+ ER+ CBX model, tumor growth and survival; assay type: in vivo; details: BT474 tumor-containing mice; Compound I 50 mg/kg by mouth once a day for 56 days
Experimental: Mice containing a BT474 tumor were treated with vehicle, Compound I (50 mg/kg by mouth once a day for 56 days), lapatinib+trastuzumab, or Compound I+lapatinib+trastuzumab.

[6] = Pharmacokinetics of Compound I in healthy volunteers after a single dose of Form B of Compound II; assay type: in vivo, human; details: for AUC(0-inf) / Cmax / Tmax / half-life / Vd/F: human, oral; for Vd/F: read-out: Vz/F
Experimental: Table 84 provides the pharmacokinetic parameters of Compound I upon administration of a single dose of Form B of Compound II (48, 100, 200, 300, 400, or 600 mg) in healthy volunteers. Blood samples for analysis of Compound I were collected pre-dose and 0.25, 0.5, 1, 1.5, 2, 3, 4, 6, 8, 12, 24, 36, 48, 72, and 96 hours post-dose.

[7] = blood, single 100 mg dose of Form B of Compound II
[8] = blood, single 200 mg dose of Form B of Compound II
[9] = blood, single 300 mg dose of Form B of Compound II
[10] = plasma, single 48 mg dose of Form B of Compound II
[11] = plasma, single 400 mg dose of Form B of Compound II
[12] = plasma, single 600 mg dose of Form B of Compound II

## CC(C)N1CCN(c2ccc(Nc3ncc4cc5n(c4n3)C3(CCCCC3)CNC5=O)nc2)CC1 [Compound II, 2′-((5-(4-isopropylpiperazin-1-yl)pyridin-2-yl)amino)-7′,8′-dihydro-6′H-spiro[cyclohexane-1,9′-pyrazino[1′,2′:1,5]pyrrolo[2,3-d]pyrimidin]-6′-one]
[1]; 125 mg/mL Slurry, 30° C., 20 h
  XRPD Result: Form B + small broad
[1]; 125 mg/mL Slurry, 30° C., 24 h
  XRPD Result: B + broad peaks at 4.2°
[1]; 125 mg/mL Slurry, 30° C., 42 h
  XRPD Result: Form B
[1]; 125 mg/mL Slurry, 30° C., 43 h VF, washed with 50 mL of H2O:acetone 1:2, Air-dried for 3.5 h
  XRPD Result: Form B
[1]; Vacuum drying, 22° C., 0.5 h, 15 in Hg, 22° C. 1.5 h, 27-28 in Hg
  XRPD Result: Form B
[1]; Vacuum drying, 22° C., 2.0 h, 27 in Hg
  XRPD Result: Form B

## CC(C)N1CCN(c2ccc(Nc3ncc4cc5n(c4n3)C3(CCCCC3)CNC5=O)nc2)CC1 [Compound I, 2′-((5-(4-isopropylpiperazin-1-yl)pyridin-2-yl)amino)-7′,8′-dihydro-6′H-spiro[cyclohexane-1,9′-pyrazino[1′,2′:1,5]pyrrolo[2,3-d]pyrimidin]-6′-one]
[2]
  Median OS: 42.5 days
[3]
  distribution to tumor: concentrates in the tumor
[4]; 200 mg
  AUC(0-t): 229 ng·h/mL
[4]; 300 mg
  AUC(0-t): 592 ng·h/mL
[4]; 400 mg
  AUC(0-t): 278 ng·h/mL
[4]; 500 mg
  AUC(0-t): 607 ng·h/mL
[4]; 650 mg
  (AUC0-24,ss)/ANC: 0.89
  AUC(0-t): 956 ng·h/mL
[5]
  Median OS: 25 days
[6]; [7]
  AUC(0-inf): 60.2 ng·h/mL
  Cmax: 9.23 ng/mL
  Tmax: 2 h
  half-life: 4.71 h
  Vd/F: 11300 L
[6]; [8]
  AUC(0-inf): 275 ng·h/mL
  Cmax: 29.3 ng/mL
  Tmax: 3 h
  half-life: 13.8 h
  Vd/F: 14500 L
[6]; [9]
  AUC(0-inf): 349 ng·h/mL
  Cmax: 27 ng/mL
  Tmax: 3.5 h
  half-life: 15.4 h
  Vd/F: 19100 L
[6]; blood, single 400 mg dose of Form B of Compound II
  Tmax: 5 h
[6]; [10]
  AUC(0-inf): 20.4 ng·h/mL
  Cmax: 3.65 ng/mL
  Tmax: 2 h
  half-life: 3.07 h
  Vd/F: 10400 L
[6]; [11]
  AUC(0-inf): 432 ng·h/mL
  Cmax: 26.3 ng/mL
  half-life: 14.9 h
  Vd/F: 19900 L
[6]; [12]
  AUC(0-inf): 886 ng·h/mL
  Cmax: 59 ng/mL
  Tmax: 6 h
  half-life: 17.2 h
  Vd/F: 16800 L
[6]; single 48 mg dose of Form B of Compound II
  CL/F: 2354 L/h
[6]; single 100 mg dose of Form B of Compound II
  CL/F: 1660 L/h
[6]; single 200 mg dose of Form B of Compound II
  CL/F: 727 L/h
[6]; single 300 mg dose of Form B of Compound II
  CL/F: 861 L/h
[6]; single 400 mg dose of Form B of Compound II
  CL/F: 926 L/h
[6]; single 600 mg dose of Form B of Compound II
  CL/F: 677 L/h
